According to ChEMBL document CHEMBL5532656, “Novel ligustilide derivatives target quorum sensing system LasR/LasB and relieve inflammatory response against Pseudomonas aeruginosa infection” (Eur J Med Chem, 2024):
pIC50: −log10 of the molar value. The source made the active and inactive calls. The calls are words filed in the database; no cut-off is given here.

Tests used:
RAW264.7 [1] = assay: Antiinflammatory activity in LPS-induced mouse RAW264.7 cells assessed as inhibition of IL-1 beta production pretreated for 3 hrs followed by LPS stimulation and measured after 24 hrs by ELISA method; assay type: functional, cell-based
Mus musculus [2] = assay: Anti-inflammatory activity against LPS-induced acute lung injury mouse model assessed as reduction in IL-6 mRNA expression at 1 to 2 mg/kg, po preincubated for 4 hrs followed by LPS stimulation and measured after 6 hrs; assay type: functional, organism-based; conditions: dose 1-2 mg/kg, time 10.0 hrs
Pseudomonas aeruginosa = assay: Anti-biofilm activity against Pseudomonas aeruginosa PAO1 assessed as reduction in biofilm formation incubated for 24 hrs by crystal violet staning based analysis; assay type: functional, organism-based
Mus musculus [3] = assay: Anti-inflammatory activity against LPS-induced acute lung injury mouse model assessed as reduction in COX-2 mRNA expression at 1 to 2 mg/kg, po preincubated for 4 hrs followed by LPS stimulation and measured after 6 hrs; assay type: functional, organism-based; conditions: dose 1-2 mg/kg, time 10.0 hrs
[4] = Toxicity in BALB/c mouse assessed as effect on body weight at 2 to 4 mg/kg, IG; assay type: organism-based; conditions: in vivo, po, dose 2-4 mg/kg
RAW264.7 [5] = assay: Antiinflammatory activity in LPS-induced mouse RAW264.7 cells assessed as inhibition of NF-kappaB p65 expression pretreated for 3 hrs followed by LPS stimulation and measured after 24 hrs by Western blot analysis; assay type: functional, cell-based; conditions: dose 1.25-10 µmol/L, time 27.0 hrs
RAW264.7 [6] = assay: Cytotoxicity against mouse RAW264.7 cells assessed as reduction in cell viability at <20 uM measured after 24 hrs by MTT assay; assay type: functional, cell-based
[7] = Toxicity in BALB/c mouse assessed as effect on spleen at 2 to 4 mg/kg, PO measured after 7 days by H and E staining based analysis; assay type: organism-based; conditions: in vivo, 168 h, dose 2-4 mg/kg, time 7 day
RAW264.7 [8] = assay: Antiinflammatory activity in LPS-induced mouse RAW264.7 cells assessed as inhibition of TNF-alpha production pretreated for 3 hrs followed by LPS stimulation and measured after 24 hrs by ELISA method; assay type: functional, cell-based
Erythrocyte = assay: Hemolytic activity in human erythrocytes assessed as hemolysis at 0.625 to 10 micromol/L measured after 4 hrs by microplate reader method; assay type: toxicity, cell-based; conditions: dose 0.625-10 µmol/L
[9] = Toxicity in BALB/c mouse assessed as effect on kidney at 2 to 4 mg/kg, PO measured after 7 days by H and E staining based analysis; assay type: organism-based; conditions: in vivo, 168 h, dose 2-4 mg/kg, time 7 day
Danio rerio = organism: Danio rerio; assay: Inhibition of macrophage migration in 4 days post fertilized Zebra fish AB embryo assessed as reduction in green fluorescence at 10 micromol/L measured after 4 to 6 hrs by fluorescence microscope based analysis; assay type: functional, organism-based; conditions: dose 10.0 µmol/L, time […]
RAW264.7 [10] = assay: Antiinflammatory activity in LPS-induced mouse RAW264.7 cells assessed as inhibition of IL-6 production pretreated for 3 hrs followed by LPS stimulation and measured after 24 hrs by ELISA method; assay type: functional, cell-based
[11] = Toxicity in Zebra fish AB embryo assessed as viability of zebrafish larvae at <50 uM measured upto 120 hrs post fertilization by stereomicroscopic analysis; parameters: species or system Danio rerio
RAW264.7 [12] = assay: Inhibition of LPS-induced ROS production in mouse RAW264.7 cells by DCFH-DA staining based fluorescence method; assay type: functional, cell-based
RAW264.7 [13] = assay: Antiinflammatory activity in mouse RAW264.7 cells assessed as reduction in COX-2 mRNA expression at 2.5 to 10 uM by RT-PCR analysis; assay type: functional, cell-based; conditions: dose 2.5-10 µM
RAW264.7 [14] = assay: Antiinflammatory activity in LPS-induced mouse RAW264.7 cells assessed as decrease in COX-2 expression level pretreated for 3 hrs followed by LPS stimulation and measured after 24 hrs by Western blot analysis; assay type: functional, cell-based; conditions: dose 1.25-10 µmol/L, time 27.0 hrs
[15] = Toxicity in BALB/c mouse assessed as effect on liver at 2 to 4 mg/kg, PO measured after 7 days by H and E staining based analysis; assay type: organism-based; conditions: in vivo, 168 h, dose 2-4 mg/kg, time 7 day
RAW264.7 [16] = assay: Antiinflammatory activity in mouse RAW264.7 cells assessed as reduction in IL-6 mRNA expression at 2.5 to 10 uM by RT-PCR analysis; assay type: functional, cell-based; conditions: dose 2.5-10 µM
[17] = Cytotoxicity against African green monkey Vero cells assessed as reduction in cell viability at 50 uM measured after 24 hrs by MTT assay; assay type: toxicity, cell-based; conditions: chlorocebus sabaeus
[18] = Inhibition of quorum sensing system in Pseudomonas aeruginosa PAO1 assessed as reduction in elastase level using BODIPY-FL-labeled DQ elastin conjugate as substrate measured after 24 hrs by fluorometric method
Mus musculus [19] = assay: Anti-inflammatory activity against LPS-induced acute lung injury mouse model assessed as reduction in myeloperoxidase activity at 1 to 2 mg/kg, po preincubated for 4 hrs followed by LPS stimulation and measured after 6 hrs by spectrophotometer analysis; assay type: functional, organism-based; conditions: dose 1-2 mg/kg, time 10.0 hrs
Mus musculus [20] = assay: Anti-inflammatory activity against LPS-induced acute lung injury mouse model assessed as reduction in iNOS mRNA expression at 1 to 2 mg/kg, po preincubated for 4 hrs followed by LPS stimulation and measured after 6 hrs; assay type: functional, organism-based; conditions: dose 1-2 mg/kg, time 10.0 hrs
RAW264.7 [21] = assay: Cytotoxicity against mouse RAW264.7 cells assessed as reduction in cell viability at 50 uM measured after 24 hrs by MTT assay; assay type: functional, cell-based
[22] = Toxicity in BALB/c mouse assessed as effect on heart at 2 to 4 mg/kg, PO measured after 7 days by H and E staining based analysis; assay type: organism-based; conditions: in vivo, 168 h, dose 2-4 mg/kg, time 7 day
Mus musculus [23] = assay: Anti-inflammatory activity against LPS-induced acute lung injury mouse model assessed as downregulation of IL-6 level administered as po dose preincubated for 4 hrs followed by LPS stimulation and measured after 6 hrs by ELISA method; assay type: functional, organism-based; conditions: dose 1-2 mg/kg, time 10.0 hrs
RAW264.7 [24] = assay: Antiinflammatory activity in LPS-induced mouse RAW264.7 cells assessed as inhibition of IkappaB-alpha expression pretreated for 3 hrs followed by LPS stimulation and measured after 24 hrs by Western blot analysis; assay type: functional, cell-based; conditions: dose 1.25-10 µmol/L, time 27.0 hrs
RAW264.7 [25] = assay: Inhibition of ERK signaling in mouse RAW264.7 cells assessed as reduction in LPS induced ERK phosphorylation by Western blot analysis; assay type: cell-based
[26] = Toxicity in BALB/c mouse assessed as effect on lung at 2 to 4 mg/kg, PO measured after 7 days by H and E staining based analysis; assay type: organism-based; conditions: in vivo, 168 h, dose 2-4 mg/kg, time 7 day
Mus musculus [27] = assay: Protection against LPS-induced acute lung injury mouse model assessed as inhibition of neutrophil infiltration at 1 to 2 mg/kg, po preincubated for 4 hrs followed by LPS stimulation and measured after 6 hrs by H and E staining based analysis; assay type: functional, organism-based; conditions: dose 1-2 mg/kg, time 10.0 hrs
RAW264.7 [28] = assay: Antiinflammatory activity in LPS-induced mouse RAW264.7 cells assessed as decrease in iNOS expression level pretreated for 3 hrs followed by LPS stimulation and measured after 24 hrs by Western blot analysis; assay type: functional, cell-based; conditions: dose 1.25-10 µmol/L, time 27.0 hrs
RAW264.7 [29] = assay: Inhibition of JNK signaling in mouse RAW264.7 cells assessed as reduction in LPS induced JNK phosphorylation by Western blot analysis; assay type: cell-based
RAW264.7 [30] = assay: Antiinflammatory activity in LPS-induced mouse RAW264.7 cells assessed as decrease in NLRP3 expression level pretreated for 3 hrs followed by LPS stimulation and measured after 24 hrs by Western blot analysis; assay type: functional, cell-based; conditions: dose 1.25-10 µmol/L, time 27.0 hrs
[31] = Toxicity in BALB/c mouse assessed as effect on animal health at 2 to 4 mg/kg, IG; assay type: organism-based; conditions: in vivo, po, dose 2-4 mg/kg
Mus musculus [32] = assay: Protection against LPS-induced acute lung injury mouse model assessed as inhibition of edema at 1 to 2 mg/kg, po preincubated for 4 hrs followed by LPS stimulation and measured after 6 hrs by H and E staining based analysis; assay type: functional, organism-based; conditions: dose 1-2 mg/kg, time 10.0 hrs

pIC50 (RAW264.7 [1]): 4.74
pIC50 (Pseudomonas aeruginosa; PAO1, 24 h): 5.13
pIC50 (RAW264.7 [8]): 5.21
pIC50 (RAW264.7 [10]): 5.58
pIC50 (RAW264.7 [12]): 5.84
pIC50 [18]: 5.14
inhibition ([18]; dose 0.625-10 µM): Dose-Dependent Effect
SMILES: CCCCC1(O)C2=C(C=CCC2)C(=O)N1Cc1ccc(C(F)(F)F)cc1 (configuration not stated)
Activity (Mus musculus [2]): Active
Activity (Pseudomonas aeruginosa; dose 0.625-10 µM): Dose-Dependent Effect
Activity (Mus musculus [3]): Active
Activity [4]: Toxic
Activity (RAW264.7 [5]): Dose-Dependent Effect
Activity (RAW264.7 [6]): inactive
Activity [7]: Non-Toxic
Activity (Erythrocyte): Toxic
Activity [9]: Non-Toxic
inhibition (Danio rerio): Active
Activity [11]: Non-Toxic
Activity (RAW264.7 [13]): Active
Activity (RAW264.7 [14]): Dose-Dependent Effect
Activity [15]: Non-Toxic
Activity (RAW264.7 [16]): Active
Activity [17]: Toxic
Activity (Mus musculus [19]): Active
Activity (Mus musculus [20]): Active
Activity (RAW264.7 [21]): Active
Activity [22]: Non-Toxic
Activity (Mus musculus [23]): Dose-Dependent Effect
Activity (RAW264.7 [24]): Dose-Dependent Effect
inhibition (RAW264.7 [25]): Active
Activity [26]: Non-Toxic
Activity (Mus musculus [27]): Active
Activity (RAW264.7 [28]): Dose-Dependent Effect
inhibition (RAW264.7 [29]): Active
Activity (RAW264.7 [30]): Dose-Dependent Effect
Activity [31]: Non-Toxic
Activity (Mus musculus [32]): Active
